The values below come from US7270965B2, “Assays to screen for compounds that bind the dorsal root receptor” (AstraZeneca AB, priority 2000, dated 2007).

Common to all, as to format: cell-based
In test [1] the test system is parental HEK-293 cells (non-transfected). Nature of the test: FLIPR calcium mobilization assay (Fluo-3), parental (non-transfected) HEK-293 cells. To be noted: wild type / parental HEK-293 cells, compounds dissolved at 3 μM. Here is the method: (§1) In order to identify the ligand of clone rat and human DRRs, a collection of peptide and non-peptide ligands was obtained from commercial sources (Sigma, CalBiochem, American Peptide Company, Bachem, RBI, Phoenix). The compounds were dissolved in water/DMSO at 3 μM and placed in 96 well microplates. A total of 1000 compounds (peptides and non-peptides) were prepared and tested.
A functional assay was performed with FLIPR (Fluorescent Imaging Plate Reader, Molecular Devices) using the fluorescent calcium indicator Fluo-3 (Molecular Probes) on a 96 well platform. BEK-293 cells, either expressing the receptor or wild type cells, were loaded with Fluo-3 as follows. Stable HEK-293 clones expressing rat and human DRR or parental cells were plated at a density of 10,000 cells/well in a 96 well plate. On the day of the experiment, the DRR cells were loaded with fluorescent solution (Dulbecco's modified medium with 10% fetal bovine serum containing 4 μM Fluo-3 and 20% pluronic acid). The cells were incubated at 37 C for one hour in a humidified chamber. Following the incubation step, cells were washed five times in Hanks' with 20 mM Hepes and 0.1% BSA (pH 7.4). The cells were analyzed using the FLIPR system to measure the mobilization of intracellular calcium in response to different compounds. […]
(Calcium flux is commonly read through the fluorescence of an indicator in the cells.)

The target of a further test is T1, rat DRR (Rattus norvegicus, UniProt Q8R4G1).
T1 construct: expressed in transfected cells
T1 sequence (Q8R4G1 1-323): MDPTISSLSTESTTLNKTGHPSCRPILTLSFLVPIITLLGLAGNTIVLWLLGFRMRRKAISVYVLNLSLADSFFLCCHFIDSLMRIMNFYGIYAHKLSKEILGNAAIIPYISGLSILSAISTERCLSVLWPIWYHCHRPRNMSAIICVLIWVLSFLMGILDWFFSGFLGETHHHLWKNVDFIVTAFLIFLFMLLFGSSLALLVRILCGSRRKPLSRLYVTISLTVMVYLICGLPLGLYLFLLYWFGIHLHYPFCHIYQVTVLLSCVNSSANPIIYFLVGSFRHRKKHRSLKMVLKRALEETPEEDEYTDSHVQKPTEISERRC
Briefly: FLIPR calcium mobilization assay (Fluo-3), HEK-293 cells expressing rat DRR. Here is the method:
(§2) REK-293 cells were transfected with a mammalian expression construct coding for the rat and human DRRs (pcDNA 3.0 vector, Invitrogen) using the Superfect reagent (Qiagen). A stable receptor pool of DRR was developed by applying a selection marker (G418, 0.9 mg/ml) and the cells were maintained in this selection medium. The presence of mRNA specific for clone DRR was assessed by Northern blot analysis and by the reverse transcriptase polymerase chain reaction (RT-PCR).
as §1
(§3) A functional assay was performed with FLIPR (Fluorescent Imaging Plate Reader, Molecular Devices) using the fluorescent calcium indicator Fluo-3 (Molecular Probes) on a 96 well platform. BEK-293 cells, either expressing the receptor or wild type cells, were loaded with Fluo-3 as follows. […] The cells were analyzed using the FLIPR system to measure the mobilization of intracellular calcium in response to different compounds.

The subject of another test is human DRR. Nature of the test: FLIPR calcium mobilization assay (Fluo-3), HEK-293 cells expressing human DRR. Here is the method: as §2, §1, §3

Take YGGFMRRVGRPEWWMDYOKRYG-OH [BAM-22P]: the “calcium response (mobilization of intracellular calcium)” value in test [1] is given as “not the wild type cells”; with rat DRR (HEK-293 cells expressing clone rat DRR, FLIPR, Fluo-3, compounds dissolved at 3 μM), “consistently elicited signals”; with human DRR (HEK-293 cells expressing clone human DRR, FLIPR, Fluo-3, compounds dissolved at 3 μM) it was “consistently elicited signals”. Also, the “dose-response relationship of calcium response” value in the test with rat DRR (cells transfected with rat DRR) and in the test on human DRR (cells transfected with human DRR) was “observation of a dose-response relationship” each time.
